What was measured:
Format in all cases: cell-based, Wistar rat
cortical neurons [1] = test: Survival of cortical neurons, MTT assay (Example 2); settings: 300 cells/mm^2, 5 days, vs DMSO control
Experimental: (§1) Cells obtained from the suspension prepared in Example 1 were cultivated in 6-well plates coated with 30 μg/ml of poly-D-lysine (Sigma) at 300 cells/mm^2 and cultivated at 37° C., 5% CO2 and 95% relative humidity. The growth media contained compounds A, B, D, E, F, G, and H respectively and the growth media added with 5 μl of DMSO were used as control. The differentiated cells after cultivation were categorically called cortical neurons.
The experiments were repeated three times. After cultivating for 5 days, live cells were counted by a known cell-counting method (MTT assay) and the absorbance was read at 540 nm.

neural stem cells [2] = test: Continuous cultivation of NSCs for 30 days, cell morphology (Example 7)
Experimental: As in Example 1, the NSCs were cultivated continuously and the growth media were replaced every seven days. DMSO-added growth media were used as the negative control. After 30 days, 100 μl of the cell suspension was aspirated and diluted to 1 ml. 250 μl of the supernatant was aspirated and placed on the slides coated with 30 μg/ml poly-D-lysine (Sigma). The cell morphology was observed thereafter under a microscope.

cortical neurons [3] = test: Neurite length of cortical neurons at low cellular density (Example 4); settings: 38 cells/mm^2, 5 days, control cells all dead
Experimental: as §1, with “cultivated at a density of 38 cells/mm^2” for “cultivated”, “μg/ml” for “μg/ml of”, “(Sigma)” for “(Sigma) at 300 cells/mm^2 and cultivated”, “D,” for “D, E, F, G,”, “G” for “H”, “are” for “after cultivation were”
The experiments were repeated three times. After cultivating for 5 days, the cells were observed under microscope and the length of the neurites was measured.

neural stem cells [4] = test: Differentiation of NSCs from neurospheres, MAP-2 immunofluorescent staining (Example 5); settings: added in the beginning, with or without adding again at seeding; 3 days + 3 days
Experimental: In the beginning of cultivating NSCs, either compound A or EGF was added into the growth media. The cells were cultivated for 3 days and the cells would aggregate to form neurospheres. One hundred μl of the cell suspension was aspirated and diluted to 1 ml. 250 μl of the supernatant which contained neurospheres was aspirated and placed on the cover slides coated with 30 μg/ml poly-D-lysine (Sigma). After all the cells had been attached onto the slides, the media was removed and replaced with the cultivating media containing compound A (FIG. 5A), EGF (FIG. 5C), or none of the growth factors (FIG. 5B, compound A in the beginning; FIG. 5D, EGF in the beginning). The cells were cultivated for another 3 days at the same condition as described above so that the cells would differentiate into cortical neurons.
The cells were stained with a known immunofluorescent staining method. To stain the neurons, a neurological marker of MAP-2 (microtubule-associated protein 2) antibody was used as the primary antibody and a fluorescent material-labeled mouse immunoglobulin that identified primary antibody was used as the second antibody. After the primary antibody that had been bound onto the neurons was identified and bound by the secondary antibody, the neurons emit fluorescent light under the excitation of a specific light source.

neural stem cells [5] = test: Differentiation of NSCs with compound D and EGF, immunofluorescent staining (Example 6); settings: compound D and EGF in the beginning, only the named substance at seeding
Experimental: The procedures were similar to Example 5. However, in the beginning of cultivating the neural stem cells, both compound D and EGF were added into the media. After all the cells had been attached onto the slides, the media were removed and replaced with the cultivating media containing compound D (FIG. 6B), EGF (FIG. 6C), none of the growth factors (FIG. 6D), or both compound D and EGF (FIG. 6A). The cells were cultivated for another 3 days and the cell morphology was observed thereafter by using immunofluorescent staining technique.

Compound	live cells, MTT absorbance at 540 nm (cortical neurons [1])	sphere formation of neural stem cells after 30 days (neural stem cells [2]; media replaced every seven days, control almost no surviving cells)	differentiation after 30 days culture plus another 3 days (immunofluorescence) (neural stem cells [2]; neurospheres grown 30 days with compound)	growth of neurons and neurites under microscope (cortical neurons [3]; 2.5 μM)	cell type after differentiation (MAP-2 staining) (neural stem cells [4])	growth of neurons and neurites under microscope (cortical neurons [3]; 5 μM)	cell type after differentiation (neural stem cells [5])
C/C(=C\Cc1c([C@@H]2CC(=O)c3c(O)cc(O)cc3O2)ccc(O)c1O)CCCC(C)(C)O [compound A]	best results	can maintain the characteristics of forming spherical clusters	differentiating normally into neurons with the continuous outgrowth of neurites	continuous growth of the neurons and the extension of the neurites can be observed	the cells will differentiate into neurons		
C/C(=C\Cc1cc([C@@H]2CC(=O)c3c(O)cc(O)cc3O2)cc(O)c1O)CCCC(C)(C)O [compound B]						continuous growth of the neurons and the extension of the neurites can be observed	
CC(C)=CCC/C(C)=C/Cc1c([C@@H]2CC(=O)c3c(O)cc(O)cc3O2)ccc(O)c1O [compound D]	best results					continuous growth of the neurons and the extension of the neurites can be observed	the cells will differentiate into neurons
CC(C)=CCC/C(C)=C/Cc1c(O)cc2c(c1O)C(=O)C[C@@H](c1ccc(O)c(O)c1CC=C(C)C)O2 [compound G]	best results					continuous growth of the neurons and the extension of the neurites can be observed	
